Measurements from ChEMBL document CHEMBL1158293, “Isolation and structure of prorocentrolide B, a fast-acting toxin from Prorocentrum maculosum” (J Nat Prod, 1996).

Test system: Mus musculus
Experiment: Toxicity in ip dosed CD1 mouse
Type: organism-based
Conditions: in vivo

SMILES: C=C1CCC2OC(CC3=CC4/C(C)=C/CC(C)CC(/C=C/C(O)C5CC(O)C(O)C(CCC(O)/C=C/C(C)=C/CCC6=NCCC(C3)C64C)O5)OC(=O)CC3OC(C(O)CC1C)C(O)C3OS(=O)(=O)O)C(O)CC2O (stereo unspecified) [PROROCENTROLIDE B]
- Activity: Toxic
